What was measured:
Cx43 CT domain = Cx43 CT domain (Homo sapiens, UniProt P17302); experiment: Dot blot binding of biotinylated AAP10 peptides to Cx43 CT; settings: biotinylated peptide, 500-1 ng
Source text: FIG. 5 is an image showing the results of a dot blot assay for testing binding of AAP10 and AAP10-pTyr with Connexin43-carboxy terminus (CT).
By contrast, the tyrosine phosphorylated isoform biotinylated AAP10-pTyr show no affinity for Cx43 CT.

GBM cells = settings: cited from earlier work
U87 glioma cells = experiment: Boyden chamber motility assay (Example 3); format: cell-based, human; settings: overnight pre-treatment in 10% serum, 4 hour incubation; vs no treatment and control peptide
Procedure: After an overnight peptide pre-treatment in 10% serum, two glioma cell lines, c6 and U87, were seeded in serum-free media containing peptides into Boyden chamber transwell inserts with 8 μm pores in the membrane and then filled the bottom wells with media containing 10% FBS as a chemoattractant. […] Then the migrated cells were fixed, stained with Hoescht dye, and imaged on an epifluorescence microscope.

LN229/GSCs = experiment: Glioma xenograft mouse model, tumor growth; format: in vivo, mice; settings: 200 μM/tumor ACT-1, 100 mg/kg TMZ
Source text: To further validate the therapeutic effect of ACT-1 in vivo, tumor growth was monitored using a glioma xenograft mouse model. As GS9-6 cells grow slowly in mice, the present inventors elected to use LN229/GSCs, isolated from LN229 human GBM cell line. […] LN229/GSCs were first injected into the flanks of immunocompromised mice and tumors (more than 100 mm3) were detected in all mice in 14 days. By contrast, GS9-6 cells form a tumor in 6 months (data not shown). Treatments at day 14 were then started. First, 100 mg/kg ACT-1 was injected subcutaneously. 24 hours later, mice were treated with 7.5 mg/kg TMZ (dissolved in DMSO) or vehicle DMSO intraperitoneally. Such treatment regime was repeated three times a week for three weeks, and tumor growth was monitored for another week. […] Taken together, these examples provide a firm support for potential clinical application of ACT-1 in treating human or canine glioblastoma patients.
FIG. 21 is a plot of tumor volume over 53 days for untreated, 200 μM/tumor ACT-1, 100 mg/kg TMZ treated, and combinatorial 200 μM/tumor ACT-1 and 100 mg/kg TMZ treated mice. FIG. 22 is a graph of tumor volumes at 53 days and FIG. 23 is an image of tumor volumes at 53 days for these treatments.

GS9-6 glioma stem cells = experiment: Sphere/colony formation assay (self-renewal); format: cell-based, human; settings: FIG. 15
Source text: To further investigate the effect of ACT-1 on glioma stem cells, the present inventors measured the capacity of glioma stem cells to self-renew. The unique feature that makes glioma stem cells different from other glioma cells is that glioma stem cells are able to copy themselves (termed as self-renewal). The well-established approach to measure self-renewal of stem cells is sphere/colony formation assay. The self-renewal of GS9-6 glioma stem cells treated with ACT-1 was then monitored. […] Two different doses of ACT-1 and TMZ were tested. Both treatments inhibited the self-renewal of GS9-6 (FIGS. 16 and 17). Thus, the data strongly indicate that ACT-1 sensitizes glioblastoma cells to TMZ.

[1] = tested on: Cx-deficient C6 glioma cell line; experiment: Cell aggregation assay on Cx-deficient cells; format: cell-based; settings: 1 μM and 25 μM compared
[2] = in vivo; cited from earlier work
[3] = tested on: C6 cells stably expressing Cx43; experiment: Boyden chamber motility assay (Example 4, serum-free pre-treatment); format: cell-based; settings: both concentrations of ACT-1 (1 μM, 25 μM); 24 hours serum-free pre-treatment, 4 hours
Procedure: FIGS. 10A-10C are images of a motility experiment using C6 cells stably expressing Cx43 showing no treatment (FIG. 10A), 25 μM reverse sequence peptide (control peptide) (FIG. 10B) and 25 μM ACT-1 (FIG. 10C).
FIG. 10D is a graph showing the results of the motility experiment using C6 cells stably expressing Cx43 showing no treatment, 1 μM ACT-1, 25 μM ACT-1, 1 μM reverse sequence peptide (control peptide), and 25 μM reverse sequence peptide (control peptide).
(§1) In this example, peptides were added after cells were incubated in serum-free media, then 24 hours of pre-treatment was allowed in the serum-free conditions, and finally the cells were transferred, without typsinizing, to Boyden chamber and incubated for 4 hours. […] With this example, the results of the C6 cells seemed to be similar to wt-C6 cells.

U87MG glioma cells = experiment: Cell aggregation assay, aggregation index (AI); format: cell-based, human; settings: 25 μM, 48 hours, serum-free
Procedure: UM87MG glioma cells, which express Cx43, were cultured in serum-free conditions permissive to aggregation. The cells were treated with the ACT-1 peptide for 48 hours and then imaged with phase-contrast microscopy. […] To quantitate the extent of aggregation, ImageJ software was used to collect size information about the aggregates in these images and from that information an aggregation index was calculated for each image. The AI is defined as the total area of aggregation in a field divided by the number of single, unaggregated cells in that field. So an increase in the ratio of aggregation area to unaggregated cells would increase the AI and indicate a higher propensity to aggregate.

GS9-6 cells = experiment: Viability of glioma stem cell line; format: cell-based, human; settings: alone or in combination
Procedure: FIG. 13 is a graph showing the effects of ACT-1 treatment at concentrations from 30 to 120 μM on the viability of the glial stem cell (GSC) line GS9-6 with or without temozolomide.
The ACT-1 peptide was tested on a glioma stem cell (GSC) line alone or in combination with temozolomide (TMZ).

wild-type C6 cells = experiment: Boyden chamber motility assay (Example 4) on wild-type cells; format: cell-based; settings: both concentrations of ACT-1 (1 μM, 25 μM)
Procedure: as §1
The same situation was true when the same experiment was performed on wild-type C6 cells.

Cx43 CT = molecular target: T1, Cx43 CT (Homo sapiens, UniProt P17302); experiment: EDAC cross-linking of ACT-1 and Cx43 carboxy terminal peptide (polyacrylamide gel); format: binding
T1 construct: EDAC cross-linking reaction of ACT-1 and connectin 43 carboxy terminal peptide
Source text: FIG. 6 is an image of a polyacrylamide gel showing EDAC cross-linking of ACT-1 and Cx43-CT.
FIG. 6 is an image of a polyacrylamide gel showing EDAC cross-linking reaction of ACT-1 and connectin 43 carboxy terminal peptide. […] ACT-1 is shown by the zero order cross-linker EDAC.

[4] = phase I, brain cancer patients; cited from earlier work
[5] = taken orally; cited from earlier work

T1 sequence (P17302 229-382 limits assumed): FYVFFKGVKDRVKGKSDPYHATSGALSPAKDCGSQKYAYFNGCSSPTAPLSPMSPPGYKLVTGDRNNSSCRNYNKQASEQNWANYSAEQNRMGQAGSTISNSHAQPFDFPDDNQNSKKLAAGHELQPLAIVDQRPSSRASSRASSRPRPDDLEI
Chain of Cx43 CT domain (P17302 229-382 limits assumed): as above

antiarrhythmic peptide 10 [AAP10]
affinity for the Cx43 CT domain in a dot blot (Cx43 CT domain): concentration dependent affinity

CC#C[C@]1(O)CC[C@H]2[C@@H]3CCC4=CC(=O)CCC4=C3[C@@H](c3ccc(N(C)C)cc3)C[C@@]21C [mifepristone]
sensitization of GBM cells to TMZ (GBM cells): sensitizes GBM cells to TMZ

ACT-1: SEQ ID NO:9: Antennapedia sequence RQPKIWFPNRRKPWKK linked to Cx43 c-terminal 9 amino acids RPRPDDLEI (RQPKIWFPNRRKPWKKRPRPDDLEI)
cell migration across the Boyden chamber membrane (U87 glioma cells): significant decrease in cell migration
tumor volume at 53 days (LN229/GSCs): may promote tumor growth
self-renewal of GS9-6 cells (GS9-6 glioma stem cells): not affected
aggregation versus controls [1]: no significant difference in aggregation
half-life in the body [2]: less than a few hours
decrease in migration [3]: 5 ×
formation of amorphous clumps (phase-contrast images) (U87MG glioma cells): tended to form amorphous clumps
aggregation index (AI) (U87MG glioma cells; Bonferroni t-test): significantly higher AIs relative to controls
viability of GS9-6 cells (GS9-6 cells): only mildly reduced the viability
decrease in motility across the Boyden chamber (wild-type C6 cells): ~5 ×
effect of binding on Cx43 CT homodimers (Cx43 CT; EDAC cross-linking): reduces Cx43 CT homodimers
interaction with the Cx43 CT (EDAC cross-linking) (Cx43 CT; zero order cross-linker EDAC): interacts with the Cx43 CT

cintredekin besudotox
adverse effects [4]: no significant adverse effects were observed

C[C@H]1c2cccc(O)c2C(=O)C2=C(O)[C@]3(O)C(=O)C(C(N)=O)=C(O)[C@@H](N(C)C)[C@@H]3[C@@H](O)[C@@H]21 [Doxycycline]
CSF to serum ratio [5]: ~0.26
